The nature of data set [1]: S-ketamine challenge: plasma concentration and tolerability. In kind it is in vivo, human.
The target in data set [2] is NMDA receptor ion-channel. The conditions noted are these: read-out: apparent affinity value against [^3H]MK-801 (Ki); no reference given; cited from earlier work.
For data set [3], the target named is NMDA receptor. The conditions noted are these: cited from earlier work.
For data set [4] the following is noted: cited from earlier work.
Data set [5] has as its system NMDA receptor. The conditions noted are these: cited from earlier work. This is another data set of the same source.
The test system of data set [6] is N-methyl-D-aspartate receptor. In kind it is in vivo, human. Particulars: for K1, rate constant of transport, mean (SD) / Ki, net influx rate constant, mean (SD) / VND(K1/k2), nondisplaceable distribution volume, mean (SD): 2T3k_VB model, 90 min data.
The nature of data set [7]: Plasma metabolite analysis of [^11C]GMOM. In kind it is in vivo, human. The conditions noted are these: for parent fraction in plasma: mean ± SD, all scans N = 15.
The mark [8] stands for this setting: followed by prolonged modest decrease until 90 min.
[9] abbreviates: cerebellum, after S-ketamine 0.3 mgkg^−1 i.v., N = 6.
[10] abbreviates: frontal cortex, baseline, N = 9.
Where [11] appears, read: occipital cortex, baseline, N = 9.
The mark [12] stands for this setting: parietal cortex, baseline, N = 9.
Where [13] appears, read: striatum, after S-ketamine 0.3 mgkg^−1 i.v., N = 6.
Where [14] appears, read: temporal cortex, baseline, N = 9.
The mark [15] stands for this setting: thalamus, after S-ketamine 0.3 mgkg^−1 i.v., N = 6.
Where [16] appears, read: whole brain gray matter, baseline, N = 9.

Like-named read-outs stand apart in the source and are kept apart here.

With `CN[C@]1(c2ccccc2Cl)CCCCC1=O` [S-ketamine], the “mean plasma level of S-ketamine during the blocking scans” value in data set [1] (0.3 mgkg^−1 i.v., pseudo-steady state, healthy volunteers) stood at 56.2 ngml^−1. The “tolerability of the administered dose during scans” value in data set [1] (0.3 mgkg^−1 i.v., healthy volunteers) is listed as “able to tolerate”. Moreover, the “mean S-ketamine plasma concentration” value in data set [1] (at the end of the scan, six subjects, 0.3 mg kg^−1 i.v. pseudo-steady state) was found to be 38 ng/mL. For the same molecule, the Ki in data set [2] was about 1000 nM.
As a reminder, the Kd is a measure of binding affinity in units of concentration. Regarding `CSc1cccc(N(C)C(N)=Nc2cc(SCCF)ccc2Cl)c1` [[[18]F]GE-179], the Kd in data set [3] is 2.4 nM.
In the case of `CSc1cccc(N(C)C(N)=Nc2cc(SCC[18F])ccc2Cl)c1` [[[18]F]GE-179], the “log D7.4” value in data set [4] (pH 7.4) is 2.49. Moreover, in data set [5] (at 20 min postinjection), the “mean parent fraction remaining in plasma” value was 50%. Also, in data set [5] (setting [8]), the “time of peak uptake in brain TACs” value was “around 20 min”.
The term log P denotes the decadic logarithm of the partition coefficient of the neutral form, usually between octanol and water. For `CSc1ccc(Cl)c(NC(=N)N(C)c2cccc(S[11CH3])c2)c1` [[^11C]CNS5161], the “log P” value in data set [4] is recorded as 1.92.
Regarding `CSc1cccc(N(C)C(=N)Nc2cc(SC)ccc2Cl)c1` [[^11C]CNS5161], in data set [3], the dissociation constant Kd was 1.9 ± 0.3 nM.
Turning to `CSc1ccc(Cl)c(NC(=N)N(C)c2cccc(O[11CH3])c2)c1` [[^11C]GMOM, N-(2-chloro-5-thiomethylphenyl)-N′-(3-[^11C]methoxy-phenyl)-N′-methylguanidine], the “K1, rate constant of transport, mean (SD)” value is on record as 0.45 (0.06) min^−1 in data set [6] (setting [9]); 0.46 (0.07) min^−1 in data set [6] (cerebellum, baseline, N = 9); 0.48 (0.07) min^−1 in data set [6] (setting [10]); 0.36 (0.07) min^−1 in data set [6] (hippocampus, baseline, N = 9); 0.47 (0.04) min^−1 in data set [6] (setting [11]); 0.46 (0.05) min^−1 in data set [6] (setting [12]). The “K1, rate constant of transport, mean (SD)” value in data set [6] (setting [13]) was 0.50 (0.08) min^−1; in data set [6] (striatum, baseline, N = 9), 0.50 (0.06) min^−1; in data set [6] (setting [14]), 0.41 (0.06) min^−1; in data set [6] (setting [15]) it was 0.52 (0.09) min^−1; in data set [6] (thalamus, baseline, N = 9), 0.50 (0.08) min^−1; in data set [6] (setting [16]), 0.45 (0.05) min^−1. Moreover, the “Ki, net influx rate constant, mean (SD)” value is 0.005 (0.008) min^−1 in data set [6] (setting [9]); 0.014 (0.010) min^−1 in data set [6] (cerebellum, baseline, N = 9); 0.023 (0.014) min^−1 in data set [6] (setting [10]); 0.028 (0.012) min^−1 in data set [6] (hippocampus, baseline, N = 9); 0.021 (0.012) min^−1 in data set [6] (setting [11]); 0.021 (0.014) min^−1 in data set [6] (setting [12]). Moreover, the “Ki, net influx rate constant, mean (SD)” value in data set [6] (setting [13]) is 0.007 (0.007) min^−1; in data set [6] (striatum, baseline, N = 9) it was 0.021 (0.015) min^−1; in data set [6] (setting [14]), 0.020 (0.012) min^−1; in data set [6] (setting [15]), 0.006 (0.007) min^−1; in data set [6] (thalamus, baseline, N = 9) it was 0.024 (0.019) min^−1; in data set [6] (setting [16]), 0.021 (0.012) min^−1. Moreover, the “VND(K1/k2), nondisplaceable distribution volume, mean (SD)” value is listed as 9.37 (0.98) in data set [6] (setting [9]); 8.43 (2.02) in data set [6] (cerebellum, baseline, N = 9); 8.54 (2.00) in data set [6] (setting [10]); 7.82 (2.25) in data set [6] (hippocampus, baseline, N = 9); 8.53 (1.73) in data set [6] (setting [11]); 8.81 (1.98) in data set [6] (setting [12]). Further, the “VND(K1/k2), nondisplaceable distribution volume, mean (SD)” value in data set [6] (setting [13]) is recorded as 9.88 (0.86); in data set [6] (striatum, baseline, N = 9), 9.15 (1.85); in data set [6] (setting [14]) it was 8.63 (2.06); in data set [6] (setting [15]), 11.32 (1.58); in data set [6] (thalamus, baseline, N = 9), 10.14 (2.56); in data set [6] (setting [16]) it was 8.47 (1.88). The “time of peak uptake in brain TACs” value in data set [6] (setting [8]) is “around 20 min”. For the same molecule, the figures for the “parent fraction in plasma” value in data set [7] (at 5 min p.i.) and in data set [7] (at 60 min p.i.) were 0.80 ± 0.06 and 0.21 ± 0.08, respectively. Also, in data set [7] (at 20 min postinjection), the “mean parent fraction remaining in plasma” value amounted to 50%. For the same molecule, in data set [7] (at 90 min p.i.), the “nonpolar metabolites fraction in plasma” value came to 1.5 ± 2.0%. Further, in data set [4], the “log P” value is recorded as 2.34.
For the molecule `CN(C(=N)Nc1cccc2ccccc12)c1cccc(I)c1` [[^123I]CNS1261], the Kd in data set [3] is 4.2 ± 0.4 nM.

The values are drawn from paper PMC4904354 (Journal of Cerebral Blood Flow & Metabolism, 2015).
